Results published in patent US11352350B2, “IRAK degraders and uses thereof” (Kymera Therapeutics, Inc., priority 2018, dated 2022).

Tests used:
OCI-LY10 = test: CTG Cell Viability Assay - OCI-LY10; format: cell-based, human; settings: Homo sapiens, OCI-Ly10, 96 h, OCI-LY10, 4 days; read-out: CTG Cell Viability Assay - OCI-LY10: Average external-IC50
Outline: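 Viability read by CellTiter-Glo luminescence after 4 days at 37° C under 5% CO2 with compound (top 10 μM final, 1:3 steps, 9 doses, DMSO 0.2%). Three-parameter logistic fit gave IC50.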

IRAK4 [1] = molecular target: T1, IRAK4 (Homo sapiens (Human), UniProt Q9NWZ3); test: IRAK4 MSD degradation in OCI-LY10; format: cell-based
T1 sequence (Q9NWZ3 whole entry): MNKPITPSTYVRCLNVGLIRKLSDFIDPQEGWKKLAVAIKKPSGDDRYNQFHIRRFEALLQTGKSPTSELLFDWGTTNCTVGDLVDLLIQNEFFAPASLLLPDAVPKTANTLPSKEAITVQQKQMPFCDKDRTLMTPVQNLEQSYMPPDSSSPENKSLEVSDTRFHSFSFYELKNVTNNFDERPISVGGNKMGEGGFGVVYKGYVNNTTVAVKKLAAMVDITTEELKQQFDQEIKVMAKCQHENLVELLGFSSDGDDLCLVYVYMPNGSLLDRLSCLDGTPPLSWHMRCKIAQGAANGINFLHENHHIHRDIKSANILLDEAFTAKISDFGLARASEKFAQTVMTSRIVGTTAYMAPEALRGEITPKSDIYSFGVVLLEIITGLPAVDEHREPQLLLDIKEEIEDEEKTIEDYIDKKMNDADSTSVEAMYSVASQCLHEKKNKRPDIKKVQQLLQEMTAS
Outline: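 Remaining IRAK4 quantified by electrochemiluminescent MSD sandwich assay with two anti-IRAK4 antibodies. Compounds were dosed as 8 concentrations in 1:3 steps from a 1 to 10 μM final top on OCI-LY10 cells, incubated 4 to 24 h at 37° C. under 5% CO2. DC50 fitted with a three-parameter logistic curve.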

IRAK4 [2] = molecular target: T1, IRAK4; test: IRAK4 degradation in human whole blood monocyte - flow cytometry; format: cell-based; settings: read-out: IRAK4 degradation in whole blood monocyte-Flow cytometry: Average external Abs IC50
Protocol: (§1) Human whole blood IRAK4 degradation flow assay. Whole blood was collected in heparinized tubes and plated on the same day as draw (day 0). Whole blood was aliquoted into deep well plates. Compound plates were prepared and a 10 point, 5-fold dilution was performed with a final DMSO concentration of 0.1%. Compound was added to whole blood deep well plate, sealed and incubated at 37° C., 5% CO2 for 20 hours (for 4 hour treatment, compounds were prepared and added the following day). Following the treatment incubation period (day 1), BD lyse fix (BD #558049) was added to the whole blood plate, placed on plate shaker for 30 seconds and incubated for 10 mins at room temperature. Whole blood was then spun down and washed two times with PBS/0.5% BSA, aspirated to pellet and placed into −80° C. freezer until further processing for flow. On the flow run day, whole blood plates were thawed and samples were transferred to PCR plates. The pre-perm staining cocktail (CD3 Ax488/CD8 BUV805/CD14 BUV395/CD16/56 BV711/CD19 BV785) was added to samples and incubated for 30 minutes at room temperature. Samples were washed two times and permeabilized with Methanol for 10 minutes at 4° C. Samples were washed two times and the post-perm staining cocktail (CD4 PE/IRAK4 Ax647 BD #560315) was added and incubated for 30 minutes at room temperature. Samples were washed two times with PBS/BSA and run on a BD LSRFortessa. Mononuclear cells are gated by SSCH/FSCH and single cells. Monocytes are then gated through CD14 positive gate and lymphocytes are gated through CD14 negative gate. To determine absolute DC50 and max degradation values, MFI values were normalized to DMSO max and 20 hour 10 μM min control. Twenty hour dose curves were calculated using a 4 parameter logistic regression curve fit, no constraints (Top doses were removed if hook effects were observed and the bottom was constrained to 0).

IRAK4 [3] = molecular target: T1, IRAK4; test: IRAK4 degradation in human whole blood lymphocyte - flow cytometry; format: cell-based; settings: read-out: IRAK4 degradation in whole blood lymphocyte-Flow cytometry: Average external Abs IC50
Protocol: as §1

IL-6 = IL-6 secretion in hPBMC using R848 stimulation; format: cell-based, human; settings: Homo sapiens, 20 h, hPBMC, R848 as stim, t = 20 h
IRAK4 [4] = molecular target: T1, IRAK4; test: hPBMC IRAK4 degradation flow assay; format: cell-based; settings: hPBMC monocyte
Outline: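 Thawed human PBMCs treated with 10-point, 5-fold compound dilutions (0.1% DMSO) at 37° C. for 20 hours or 4 hours. IRAK4 measured by flow MFI in CD14+ monocytes and CD14− lymphocytes, normalized to DMSO and 10 μM 20-hour control; DC50 and max degradation from 4-parameter logistic fit.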

[5] = OCI-LY10, 4 hrs, MSD, read-out: IRAK4 MSD degradation in OCI-LY10 at 4 hrs: Average external-Abs DC50
[6] = OCI-LY10, 4 hrs, read-out: IRAK4 MSD degradation in OCI-LY10 at 4 hrs: DC50
[7] = 20 hrs, read-out: IRAK4 degradation in hPBMC monocyte: DC50
[8] = 20 hr, flow assay, read-out: IRAK4 degradation in hPBMC monocyte at 20 hr: Average external Abs DC50

Row | SMILES | IC50 (OCI-LY10) | DC50 (IRAK4 [1]; [5]) | DC50 (IRAK4 [2]) | DC50 (IRAK4 [3]) | IC50 (IL-6) | DC50 (IRAK4 [1]; [6]) | DC50 (IRAK4 [4]; [7]) | DC50 (IRAK4 [4]; [8]) | DC50 (IRAK4 [1]; OCI-LY10, 24 hrs, MSD, read-out: IRAK4 MSD degradation in OCI-LY10 at 24 hrs: Average external-Abs DC50)
1 | O=C1CCC(n2c3ccccc3c3c(CCCOCCOCCNC[C@H]4CC[C@H](n5cc(NC(=O)c6coc(-c7ccnc(NCC8CC8)c7)n6)c(C(F)F)n5)CC4)ccnc32)C(=O)N1 (stereo partly drawn) [I-92] | 100 to 500 nM | 10 to 100 nM | 100 to 500 nM | 500 to 1000 nM |  |  |  |  | 
2 | CC(C)c1nn([C@H]2CC[C@H](CN(C)C[C@@H]3CN(CCCc4ccc5c(c4)n(C)c(=O)n5C4CCC(=O)NC4=O)CCO3)CC2)cc1NC(=O)c1coc(-c2ccnc(NCC3CC3)c2)n1 (stereo partly drawn) [I-94, 2-[2-(Cyclopropylmethylamino)-4-pyridyl]-N-[1-[4-[[[(2R)-4-[3-[1-(2,6-dioxo-3-piperidyl)-3-methyl-2-oxo-benzimidazol-5-yl]propyl]morpholin-2-yl]methyl-methyl-amino]methyl]cyclohexyl]-3-isopropyl-pyrazol-4-yl]oxazole-4-carboxamide] |  |  | 100 to 500 nM | 100 to 500 nM |  |  |  |  | 
3 | Cn1c(=O)n(C2CCC(=O)NC2=O)c2cccc(CN3CCC(OC4CCN(C[C@H]5CC[C@H](n6cc(NC(=O)c7cnn8ccc(N9C[C@H]%10C[C@@H]9CO%10)nc78)c(C(F)F)n6)CC5)CC4)CC3)c21 (stereo partly drawn) [I-513] | > 1000 nM |  |  |  | < 1 nM | < 10 nM | < 10 nM |  | 
4 | Cn1c(=O)n(C2CCC(=O)NC2=O)c2cccc(C#CCCCOCc3ccc(-n4cc(NC(=O)c5cnn6ccc(N7C[C@H]8C[C@@H]7CO8)nc56)c(C(F)F)n4)cc3)c21 (stereo partly drawn) [I-498, N-[3-(difluoromethyl)-1-[4-[5-[1-(2,6-dioxo-3-piperidyl)-3-methyl-2-oxo-benzimidazol-4-yl]pent-4-ynoxymethyl]phenyl]pyrazol-4-yl]-5-[(1R,4R)-2-oxa-5-azabicyclo [2.2.1]heptan-5-yl] pyrazolo[1,5-a]pyrimidine-3-carboxamide] | > 1000 nM |  |  |  | 10 to 100 nM | 100 to 1000 nM | 100 to 1000 nM |  | 
5 | Cn1c(=O)n(C2CCC(=O)NC2=O)c2cccc(C#CCC3CCN(C[C@H]4CC[C@H](C5N=C(NC(=O)c6cnn7ccc(N8CCOC(C)(C)C8)cc67)C(C(F)F)=N5)CC4)CC3)c21 (stereo partly drawn) [I-532] | > 1000 nM |  |  |  | 1 to 10 nM | 10 to 100 nM | 10 to 100 nM |  | 
6 | Cn1c(=O)n(C2CCC(=O)NC2=O)c2cccc(CCCOC3CCN(C[C@H]4CC[C@H](n5cc(NC(=O)c6cnn7ccc(N8CCCOCC8)nc67)c(C(F)F)n5)CC4)CC3)c21 (stereo partly drawn) [I-515] | > 1000 nM |  |  |  | < 1 nM | < 10 nM | < 10 nM |  | 
7 | Cn1c(=O)n(C2CCC(=O)NC2=O)c2cccc(CCC3CCN(C[C@H]4CC[C@H](n5cc(NC(=O)c6cnn7ccc(N8C[C@H]9C[C@@H]8CO9)nc67)c(C(F)F)n5)CC4)CC3)c21 (stereo partly drawn) [I-487] | > 1000 nM |  |  |  | < 1 nM | 10 to 100 nM | < 10 nM |  | 
8 | Cn1c(=O)n(C2CCC(=O)NC2=O)c2cccc(CCCOC3CCN(C[C@H]4CC[C@H](n5cc(NC(=O)c6cnn7cccnc67)c(N6CCOCC6)n5)CC4)CC3)c21 (stereo partly drawn) [I-481] | > 1000 nM |  |  |  | 10 to 100 nM | 100 to 1000 nM | 100 to 1000 nM |  | 
9 | Cn1c(=O)n(C2CCC(=O)NC2=O)c2cccc(C#CCN3CCC4(CC3)CN(C[C@H]3CC[C@H](n5cc(NC(=O)c6cnn7ccc(N8C[C@H]9C[C@@H]8CO9)nc67)c(C(F)F)n5)CC3)C4)c21 (stereo partly drawn) [I-485] | > 1000 nM |  |  |  | 1 to 10 nM | 10 to 100 nM | < 10 nM |  | 
10 | Cn1c(=O)n(C2CCC(=O)NC2=O)c2cccc(CCN3CC4(CCN(C(=O)[C@H]5CC[C@H](n6cc(NC(=O)c7cnn8ccc(N9C[C@H]%10C[C@@H]9CO%10)nc78)c(C(F)F)n6)CC5)CC4)C3)c21 (stereo partly drawn) [I-420] | < 50 nM | < 10 nM |  |  | < 1 nM |  |  | < 10 nM | 
11 | C[C@H](C#Cc1cccc2c1N(C)C(=O)C2C1CCC(=O)NC1=O)OC1CCN(C[C@H]2CC[C@H](n3cc(NC(=O)c4cnn5ccc(N6C[C@H]7C[C@@H]6CO7)nc45)c(C(F)F)n3)CC2)CC1 (stereo partly drawn) [I-555] | > 1000 nM |  |  |  | 1 to 10 nM | < 10 nM | < 10 nM |  | 
12 | CN(C[C@H]1CC[C@H](C2N=C(NC(=O)c3cnn4ccc(N5C[C@H]6C[C@@H]5CO6)nc34)C(C(F)F)=N2)CC1)C1CCC2(CC1)CC(Cc1cccc3c1n(C)c(=O)n3C1CCC(=O)NC1=O)C2 (stereo partly drawn) [I-554] | > 1000 nM |  |  |  | < 1 nM | 10 to 100 nM | < 10 nM |  | 
13 | Cn1c(=O)n(C2CCC(=O)NC2=O)c2cccc(CCCCC3CCN(C(=O)c4ccc(-n5cc(NC(=O)c6cnn7ccc(N8C[C@H]9C[C@@H]8CO9)nc67)c(C(F)F)n5)cc4)CC3)c21 (stereo partly drawn) [I-426] | > 1000 nM | 100 to 1000 nM |  |  | 1 to 10 nM |  |  | < 10 nM | 
14 | Cn1c(=O)n(C2CCC(=O)NC2=O)c2cccc(CC[C@H]3CN(C[C@H]4CC[C@H](n5cc(NC(=O)c6cnn7ccc(N8CCCOCC8)nc67)c(C(F)F)n5)CC4)CCO3)c21 (stereo partly drawn) [I-516] | > 1000 nM |  |  |  | 1 to 10 nM | 10 to 100 nM | < 10 nM |  | 
15 | Cn1c(=O)n(C2CCC(=O)NC2=O)c2cccc(CCCC3CCN(C[C@H]4CC[C@H](n5cc(NC(=O)c6cnn7ccc(N8CCOC(C)(C)C8)nc67)c(C(F)F)n5)CC4)CC3)c21 (stereo partly drawn) [I-525] | > 1000 nM |  |  |  | < 1 nM | 10 to 100 nM | < 10 nM |  | 
16 | Cn1c(=O)n(C2CCC(=O)NC2=O)c2cccc(CCCOC[C@@H]3CN(C[C@H]4CC[C@H](n5cc(NC(=O)c6cnn7ccc(N8CCOCC8)nc67)c(C(F)F)n5)CC4)CCO3)c21 (stereo partly drawn) [I-448] | > 1000 nM |  |  |  | 1 to 10 nM | 10 to 100 nM | < 10 nM |  | 
17 | O=C1CCC(n2c3cccc(C#CCOC4CCN(C[C@H]5CC[C@H](n6cc(NC(=O)c7cnn8ccc(N9C[C@H]%10C[C@@H]9CO%10)nc78)c(C(F)F)n6)CC5)CC4)c3c3cccnc32)C(=O)N1 (stereo partly drawn) [I-482] | > 1000 nM |  |  |  | 1 to 10 nM | 10 to 100 nM | 100 to 1000 nM |  | 
18 | CN(C[C@@H]1CN(Cc2cccc3c2n(C)c(=O)n3C2CCC(=O)NC2=O)CCO1)C[C@H]1CC[C@H](n2cc(NC(=O)c3cnn4ccc(N5C[C@H]6C[C@@H]5CO6)nc34)c(C(F)F)n2)CC1 (stereo partly drawn) [I-411] | > 1000 nM | > 1000 nM |  |  | < 1 nM |  |  | 10 to 100 nM | 
19 | Cn1c(=O)n(C2CCC(=O)NC2=O)c2cccc(CC3CC4(CCN(C(=O)c5ccc(-n6cc(NC(=O)c7cnn8ccc(N9C[C@H]%10C[C@@H]9CO%10)nc78)c(C(F)F)n6)cc5)CC4)C3)c21 (stereo partly drawn) [I-423] | > 1000 nM | 100 to 1000 nM |  |  | 1 to 10 nM |  |  | < 10 nM | 
20 | CN(CC1CCN(c2cccc3c2C(=O)N(C2CCC(=O)NC2=O)C3=O)CC1)C[C@H]1CC[C@H](n2cc3cc(NC(=O)c4cccc(C(F)(F)F)n4)c(C(C)(C)O)cc3n2)CC1 (stereo partly drawn) [I-317] | > 1000 nM | 10 to 100 nM |  |  | 1 to 10 nM |  |  | 10 to 100 nM | 10 to 100 nM
21 | CN(CCCOCCCc1cccc2c1n(C)c(=O)n2C1CCC(=O)NC1=O)C[C@H]1CC[C@H](n2cc(NC(=O)c3cnn4ccc(N5CCCCC5)nc34)c(C(F)F)n2)CC1 (stereo partly drawn) [I-419] | > 1000 nM | 10 to 100 nM |  |  | 1 to 10 nM |  |  | < 10 nM | 
22 | Cn1c(=O)n(C2CCC(=O)NC2=O)c2cccc(C#CCN3CCC4(CC3)CN(C(=O)[C@H]3CC[C@H](n5cc(NC(=O)c6cnn7ccc(N8C[C@H]9C[C@@H]8CO9)nc67)c(C(F)F)n5)CC3)C4)c21 (stereo partly drawn) [I-418] | > 1000 nM | 10 to 100 nM |  |  | 1 to 10 nM |  |  | 10 to 100 nM | 
